# Assay results as given in the supplement of paper PMC10307832.
# Tests used:
# Experiment in all cases: relative viability (nuclei count vs DMSO), 5 days (fraction); higher = more cells survive
# [1] = compound: Cc1ccc(F)c(NC(=O)Nc2ccc(-c3cccc4[nH]nc(N)c34)cc2)c1 [Linifanib] + Cc1cc(Nc2cc(N3CCN(C)CC3)nc(Sc3ccc(NC(=O)C4CC4)cc3)n2)n[nH]1 [Tozasertib] (partner 0.1 µM)
# In short: (§1)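 Relative viability was taken as the ratio of nuclei in treated wells to nuclei in vehicle wells. Lung cancer cell lines in 1536-well plates received compounds by pin tool one day after seeding, either one drug alone or a fixed anchor-drug dose plus five library-drug doses (not always all listed) in √10 steps. Nuclei were counted on 4× images after 5 days of treatment, and values are medians of duplicate plates.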
# [2] = compound: Cc1ccc(F)c(NC(=O)Nc2ccc(-c3cccc4[nH]nc(N)c34)cc2)c1 [Linifanib] + C[C@@H](Oc1cc(-c2cnn(C3CCNCC3)c2)cnc1N)c1c(Cl)ccc(F)c1Cl [Crizotinib] (partner 1 µM)
# In short: as §1
# [3] = compound: Cc1ccc(F)c(NC(=O)Nc2ccc(-c3cccc4[nH]nc(N)c34)cc2)c1 [Linifanib] + Nc1ncn([C@H]2C[C@H](O)[C@@H](CO)O2)c(=O)n1 [Decitabine] (partner 2 µM)
# In short: as §1
# [4] = compound: Cc1ccc(F)c(NC(=O)Nc2ccc(-c3cccc4[nH]nc(N)c34)cc2)c1 [Linifanib] + CCNC(=O)c1noc(-c2cc(C(C)C)c(O)cc2O)c1-c1ccc(CN2CCOCC2)cc1 [Luminespib] (partner 0.01 µM)
# In short: as §1
# [5] = compound: Cc1ccc(F)c(NC(=O)Nc2ccc(-c3cccc4[nH]nc(N)c34)cc2)c1 [Linifanib] + CC(C)C[C@H](NC(=O)[C@H](Cc1ccccc1)NC(=O)c1cnccn1)B(O)O [Bortezomib] (partner 0.002 µM)
# In short: as §1
# [6] = compound: Cc1ccc(F)c(NC(=O)Nc2ccc(-c3cccc4[nH]nc(N)c34)cc2)c1 [Linifanib] + CC(=O)Nc1cccc(-n2c(=O)n(C3CC3)c(=O)c3c(Nc4ccc(I)cc4F)n(C)c(=O)c(C)c32)c1 [Trametinib] (partner 0.02 µM)
# In short: as §1
Cell Line,relative viability ([1]; first compound 0.03162 µM),relative viability ([1]; first compound 0.1 µM),relative viability ([1]; first compound 0.3162 µM),relative viability ([2]; first compound 0.03162 µM),relative viability ([2]; first compound 0.1 µM),relative viability ([2]; first compound 0.3162 µM),relative viability ([3]; first compound 0.03162 µM),relative viability ([3]; first compound 0.1 µM),relative viability ([3]; first compound 0.3162 µM),relative viability ([4]; first compound 0.03162 µM),relative viability ([4]; first compound 0.1 µM),relative viability ([4]; first compound 0.3162 µM),relative viability ([5]; first compound 0.03162 µM),relative viability ([5]; first compound 0.1 µM),relative viability ([5]; first compound 0.3162 µM),relative viability ([6]; first compound 0.03162 µM),relative viability ([6]; first compound 0.1 µM),relative viability ([6]; first compound 0.3162 µM)
NCI-H322M,0.5,0.515,0.407,0.954,0.982,0.828,0.732,0.697,0.77,0.88,0.863,0.882,1.24,1.21,1.27,0.549,0.345,0.506
NCI-H441,0.48,0.654,0.678,0.715,0.855,0.713,0.264,0.291,0.253,0.371,0.297,0.252,0.496,0.43,0.371,0.457,0.518,0.409
NCI-H460,0.139,0.436,0.475,0.95,1.16,0.909,0.492,0.583,0.475,0.0304,0.0311,0.0301,1.03,1.18,0.925,0.178,0.168,0.146
NCI-H520,0.382,0.456,0.418,0.799,1.09,0.757,0.461,0.6,0.542,0.171,0.204,0.226,0.773,1.07,0.497,0.673,0.803,0.731
NCI-H596,0.798,0.815,0.9,0.913,0.902,1.05,0.915,1.01,1.06,1.02,1.1,1.17,0.899,1.06,1.08,0.813,0.894,0.749
NCI-H647,0.188,0.325,0.352,0.963,1.12,0.857,0.339,0.368,0.481,0.149,0.325,0.114,1.25,1.14,1.07,0.567,0.526,0.588
NCI-H650,0.704,0.733,0.73,0.742,0.665,0.73,0.371,0.355,0.312,0.816,0.611,0.71,0.816,0.814,0.864,0.935,0.967,0.952
NCI-H661,0.35,0.35,0.36,1.12,1.23,0.906,0.559,0.626,0.582,0.922,0.907,0.926,0.88,0.915,0.645,0.577,0.591,0.55
